Test results published in US6235787A, “Hydrazine derivatives” (Hoffmann-La Roche Inc., priority 1997, dated 2001).
pIC50: −log10 of the molar value.

Key:
Format in all cases: cell-based
[1] = tested on: TNF-α release (THP1 cells); assay: Test A: Inhibition of TNF-α Release (LPS-stimulated THP1 cells, ELISA); settings: Homo sapiens, THP-1, LPS-induced TNF-α release, 3 hours, 37° C., read-out: Test A IC50 (nMol)
Experimental: Test A: Inhibition of TNF-α Release
THP1 cells were cultivated in RPMI 1640 medium supplemented with antibiotics and 10% foetal calf serum, harvested by centrifugation and diluted to 5×10^5 cells/ml in the above medium supplemented with 20 mM HEPES buffer. Aliquots ([…]) of the cell suspension were plated out on 96 well culture plates and incubated for 0.5 hour at 37° C. prior to the addition of the test compounds. The latter were dissolved in dimethyl sulphoxide (DMSO) to a stock concentration of 1.2 mM which was diluted with phosphate buffered saline/10% DMSO solution to provide test compounds in final concentrations of 10^-9 to 10^-5 M, with each concentration being tested in duplicate. The cells were incubated with the test compounds for 0.5 hour at 37° C., LPS (bacterial lipopolysaccharide) was then added to a concentration of […] and incubation was continued for 3 hours at 37° C. in an atmosphere containing 5% CO2 and at 95% relative humidity. After centrifugation at 260 g for 10 minutes an aliquot of each supernatant was removed and the amount of TNF-a was estimated by ELISA (R & D Systems Europe Ltd., Abingdon, England). The concentration of test compound which brings about 50% inhibition of LPS-induced TNF-a release (IC50) was computed from the dose-response curve.

[2] = tested on: TGF-α release (Normal human epidermal keratinocytes); assay: Test B: Inhibition of TGF-α Release (TPA-stimulated NHEK); settings: 24 hours, 37° C., read-out: Test B IC50 (nMol)
Experimental: Test B: Inhibition of TGF-α Release
This test is an adaptation of the method described by R. J. Coffrey, R. Derynk, J. N. Wilcox, T. S. Bringman, A. S. Goustin, H. L. Moses and M. R. Pittelkow, Nature, (1987), 328, 816-820. Normal human epidermal keratinocytes (NHEK) (neonatal and adult) were supplied by Clonetics Corporation, San Diego, Calif., USA and at the third passage were plated out on 96 well culture plates at 2×10^3 to 10^4 cells per well and grown in a humidified incubator having a 5% CO2 atmosphere at 37° C. for 5 days in serum-free keratocyte growth medium (KGM; Clonetics Corporation). Test compounds were dissolved in DMSO and then diluted 10 times in keratinocyte basal medium (KBM; Clonetics Corporation). Serial dilutions of the test compounds were made in 10% DMSO in KBM to provide concentrations 12 times higher than the final assay concentration. The test compound dilutions (or vehicle only as controls) were added to the cells and incubation was then carried out at 37° C. for 0.5 hour. TGF-a release was then stimulated by the addition of 10 ng/ml TPA (phorbol 12-myristate 13-acetate). […]

[3] = tested on: Normal human epidermal keratinocytes (NHEK); assay: Test C: Inhibition of Keratinocyte Proliferation (3H-thymidine incorporation); settings: 3 days, read-out: Test C IC50 (nMol)
Experimental: Test C: Inhibition of Keratinocyte Proliferation
This test is an adaptation the methods described by T. Karashima, H. Hachisuka and Y. Sasai, J. Dermatol. Sci., (1996), 12, 246-254 and A. Olaniran, B. S. Baker, J. J. Garioch, A. V. Powles and L. Fry, Arch. Dermatol. Res., (1995), 287, 231-236. Normal human epidermal keratinocytes (NHEK) (neonatal and adult) were plated out on 96 well culture plates at 2×10^3 cells per well. Following attachment of the cells to the plate by incubation for 24 hours in a humidified incubator having a 5% CO2 atmosphere at 37° C. in serum-free KGM (see above), the medium was replaced with KBM (see above) for 4 days in order to arrest the growth of the cells. Test compounds were dissolved in DMSO and then diluted 10 times in KBM. Serial dilutions of the test compounds were made in 10% DMSO in KBM to provide concentrations 11 times higher than the final assay concentration. The cells were then returned to KGM and the test compound dilutions (or vehicle only for controls) were added immediately. After incubation for 3 days the cells were pulsed with […] ^3 H-thymidine, specific activity 5 Ci/mmol (Amersham International plc, Little Chalfont, Buckinghamshire, UK), for the last 16 hours. Cells were then detached using trypsin-EDTA and harvested. ^3 H-Thymidine incorporation as a measure of proliferation was determined by scintillation counting techniques. […]

| SMILES | pIC50 [1] | pIC50 [2] | pIC50 [3] |
| --- | --- | --- | --- |
| CC(C)C[C@@H](C(=O)NN(Cc1ccccc1)S(C)(=O)=O)[C@H](C/C=C/c1ccccc1)C(=O)NO [C, (E)-2'-Benzyl-2(R)-[1(S)-(hydroxycarbamoyl)-4-phenyl-3-butenyl]-2'-(methanesulphonyl)-4-methylvalerohydrazide] | 6.44 | – | – |
| CC(C)C[C@@H](C(=O)NN1C(=O)CCCC1=O)[C@H](C/C=C/c1ccccc1)C(=O)NO [F, (E)-2(R)-[(1S)-(Hydroxycarbamoyl)-4-phenyl-3-butenyl]-4-methyl-N-(2,6-dioxopiperidino)valeramide] | 5.82 | – | – |
| CC[C@H](C)CN(NC(=O)[C@H](CC(C)C)[C@H](C/C=C/c1ccccc1)C(=O)NO)S(C)(=O)=O [G, (E)-2(R)-[1(S)-(hydroxycarbamoyl)-4-phenyl-3-butenyl]-2'-(methanesulphonyl)-4-methyl-2'-[2(S)-methylbutyl]valerohydrazide] | 6.37 | – | – |
| C=C(C)CN(NC(=O)[C@H](CC(C)C)[C@H](C/C=C/c1ccccc1)C(=O)NO)S(C)(=O)=O [H] | 6.42 | – | – |

More lines, in order of rising pIC50 [1], values ahead:

| pIC50 [1] | SMILES | pIC50 [2] | pIC50 [3] |
| --- | --- | --- | --- |
| 6.03 | CC(C)CC(=O)N(CC(C)C)NC(=O)[C@H](CC(C)C)[C@H](C/C=C/c1ccccc1)C(=O)NO [J, (E)-2(R)-[(S)-(Hydroxycarbamoyl)-4-phenyl-3-butenyl]-2'-(isobutyl)-2'-(isopentanoyl)-4-methylvalerohydrazide] | – | – |
| 6.06 | COC(=O)N(CC(C)C)NC(=O)[C@H](CC(C)C)[C@H](C/C=C/c1ccccc1)C(=O)NO [Compound I, Methyl (E)-3-[2(R)-[1(S)-(hydroxycarbamoyl)-4-phenyl-3-butenyl]-4-methylvaleryl]-2-isobutylcarbazate] | – | – |
| 6.27 | CC(C)C[C@@H](C(=O)NN(CC(C)C)S(C)(=O)=O)[C@H](C/C=C/c1ccccc1)C(=O)NO [E, (E)-2(R)-[1(S)-(Hydroxycarbamoyl)-4-phenyl-3-butenyl]-2'-isobutyl-2'-(methanesulphonyl)-4-methylvalerohydrazide] | – | – |
| 6.29 | COc1ccc(N(NC(=O)[C@H](CC(C)C)[C@H](C/C=C/c2ccccc2)C(=O)NO)S(C)(=O)=O)cc1 [Compound B, 1(E)-2(R)-[1(S)-(Hydroxycarbamoyl)-4-phenyl-3-butenyl]-2'-(methanesulphonyl)-2'-(4-methoxyphenyl)-4-methylvalerohydrazide] | 6.59 | 5.96 |
| 6.36 | CC(C)C[C@@H](C(=O)NN(c1ccccc1)S(C)(=O)=O)[C@H](C/C=C/c1ccccc1)C(=O)NO [Compound A, (E)-2(R)-[1(S)-(Hydroxycarbamoyl)-4-phenyl-3-butenyl]-2'-(methanesulphonyl)-4-methyl-2'-phenylvalerohydrazide] | 6.68 | 5.89 |
| 6.39 | CC(C)C[C@@H](C(=O)NN(CC1CCCCC1)S(C)(=O)=O)[C@H](C/C=C/c1ccccc1)C(=O)NO [D, (E)-2'-(Cyclohexylmethyl)-2(R)-[1(S)-(hydroxycarbamoyl)-4-phenyl-3-butenyl]-2'-(methanesulphonyl)-4-methylvalerohydrazide] | – | – |
